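Exposure lasted 48 hours, with cells grown in 96-well plates and compounds tested at five concentrations. At the GI50, growth is halved.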 The source made the active and inactive calls. Cut-off read from the data, not from the text of the source: active = GI50 up to about 1.1 µM and inactive = higher.

Test systems include M14; TK-10; CAKI-1; DU-145; UACC-257; MDA-MB-435; UACC-62; OVCAR-8; Hs-578T; HCC 2998; OVCAR-4; SNB-75; BT-549; SK-MEL-2; Malme-3M; HOP-62; COLO 205; HCT-15; MDA-MB-231; A498.
What all share (test): NCI-60 cell line screen, 48 h

For `Nc1nc(N)c(-c2cccc(C(F)(F)F)c2)c(Cc2cccc(C(F)(F)F)c2)n1`, the GI50 in the assay with M14 was 1.22 µM (inactive); in the assay on TK-10, 7.67 µM (inactive); in the assay on CAKI-1, 7.23 µM (inactive); in the assay on DU-145 it was 7.71 µM (inactive); in the assay on UACC-257, 3.43 µM (inactive); with MDA-MB-435 it was 2.96 µM (inactive). Moreover, the GI50 in the assay with UACC-62 is 0.693 µM (active); in the assay on OVCAR-8 it was 8.49 µM (inactive); with Hs-578T it was 14.2 µM (inactive); in the assay with HCC 2998 it was 3.1 µM (inactive); in the assay on OVCAR-4, 12.2 µM (inactive); in the assay on SNB-75 it was 13.6 µM (inactive). Besides, the GI50 was 10.2 µM (inactive) with BT-549; 7.71 µM (inactive) with SK-MEL-2; 12.4 µM (inactive) in the assay on Malme-3M; 6.05 µM (inactive) with HOP-62; 6.27 µM (inactive) in the assay with COLO 205; 1.44 µM with HCT-15. For the same molecule, the GI50 in the assay on MDA-MB-231 was 13.1 µM (inactive); with A498 it was 3.43 µM (inactive).
Take `NCCC1([N+](=O)[O-])CCNCC1`: the GI50 in the assay with M14, with TK-10, in the assay on CAKI-1, in the assay on DU-145, with UACC-257 and with MDA-MB-435 was > 100 µM (inactive) in each case. Also, the GI50 in the assay on UACC-62, with OVCAR-8, in the assay with Hs-578T, with HCC 2998, in the assay on OVCAR-4 and in the assay on SNB-75 was > 100 µM (inactive) each time. Moreover, the GI50 in the assay on BT-549 is > 100 µM (inactive); with SK-MEL-2, > 100 µM (inactive); with Malme-3M it was > 100 µM (inactive); in the assay on HOP-62 it was > 100 µM (inactive); with COLO 205, > 100 µM (inactive); with HCT-15, more than 100 µM. Further, the GI50 in the assay on MDA-MB-231 and with A498 was > 100 µM (inactive) each time.
In the case of `COc1ccc(N2C(N)=C(C#N)C(C#N)(C#N)C2c2cccc([N+](=O)[O-])c2)cc1` (centres undefined), the GI50 was 17.3 µM (inactive) in the assay on M14; 16.6 µM (inactive) in the assay with TK-10; 2.61 µM (inactive) with CAKI-1; 17.8 µM (inactive) in the assay on DU-145; 13.7 µM (inactive) in the assay with UACC-257; 16.9 µM (inactive) in the assay with MDA-MB-435. The GI50 is 15.9 µM (inactive) in the assay on UACC-62; 17.9 µM (inactive) in the assay on OVCAR-8; 24 µM (inactive) in the assay with Hs-578T; 16.9 µM (inactive) in the assay with HCC 2998; 17.7 µM (inactive) in the assay with OVCAR-4; 18.8 µM (inactive) in the assay with SNB-75. Also, the GI50 is 17.9 µM (inactive) in the assay with BT-549; 18.1 µM (inactive) in the assay with SK-MEL-2; 6.73 µM (inactive) in the assay on Malme-3M; 16.3 µM (inactive) in the assay with HOP-62; 10.7 µM (inactive) with COLO 205; 15.5 µM in the assay on HCT-15. Besides, the GI50 is 14.9 µM (inactive) in the assay on MDA-MB-231 and 16.1 µM (inactive) in the assay with A498.
As to `CC(=O)NC1C(OCc2ccccc2)OC(CO)C(O)C1OC(C)C(=O)N[C@@H](C)C(=O)N[C@H](CCC(=O)NCCNCCNc1c2ccccc2nc2cccc([N+](=O)[O-])c12)C(N)=O` (some centres undefined), the GI50 in the assay with M14 was 0.0993 µM (active); in the assay with TK-10, 0.135 µM (active); with CAKI-1 it was 0.0634 µM (active); in the assay with DU-145, 0.0241 µM (active); in the assay with UACC-257, 0.108 µM (active); in the assay with MDA-MB-435, 0.0389 µM (active). For the same molecule, the GI50 in the assay on UACC-62 is 0.0659 µM (active); with OVCAR-8, 0.11 µM (active); in the assay on Hs-578T, 0.356 µM (active); in the assay on HCC 2998, 0.0152 µM (active); in the assay with OVCAR-4 it was 0.0228 µM (active); in the assay on SNB-75, 0.205 µM (active). The GI50 in the assay with BT-549 is 0.0698 µM (active); in the assay with SK-MEL-2, 0.048 µM (active); with Malme-3M, 0.043 µM (active); with HOP-62, 0.192 µM (active); with COLO 205, < 0.0112 µM (active); in the assay on HCT-15, 0.153 µM. Moreover, the GI50 was 0.177 µM (active) with MDA-MB-231 and 0.137 µM (active) in the assay on A498.
For the molecule `Fc1cc(F)c(F)c(S)c1F`, the GI50 with M14, in the assay on TK-10, in the assay on CAKI-1, with DU-145, with UACC-257 and in the assay with MDA-MB-435 was > 100 µM (inactive) throughout. In addition, the GI50 was > 100 µM (inactive) in the assay on UACC-62; 41.1 µM (inactive) in the assay on OVCAR-8; 37.5 µM (inactive) in the assay on Hs-578T; 34.4 µM (inactive) with HCC 2998; 62.4 µM (inactive) in the assay with OVCAR-4; > 100 µM (inactive) in the assay with SNB-75. The GI50 in the assay with BT-549 was 26 µM (inactive); in the assay on SK-MEL-2 it was > 100 µM (inactive); in the assay with Malme-3M, > 100 µM (inactive); in the assay with HOP-62 it was > 100 µM (inactive); in the assay with COLO 205, > 100 µM (inactive); in the assay with HCT-15 it was 59.6 µM. Further, the GI50 with MDA-MB-231 is 22.1 µM (inactive); in the assay on A498, 17.5 µM (inactive).
In the case of `O=C(N/N=C(COc1cccc(Cl)c1)\N=C\c1cccnc1)c1ccncc1`, the GI50 is > 100 µM (inactive) with M14; > 100 µM (inactive) with TK-10; 73.5 µM (inactive) in the assay with CAKI-1; > 100 µM (inactive) with DU-145; 90.4 µM (inactive) with UACC-257; > 100 µM (inactive) with MDA-MB-435. The GI50 is > 100 µM (inactive) in the assay with UACC-62; 89.3 µM (inactive) with OVCAR-8; 83.4 µM (inactive) in the assay on Hs-578T; > 100 µM (inactive) in the assay on HCC 2998; 84.7 µM (inactive) with OVCAR-4; 18.5 µM (inactive) with SNB-75. The GI50 in the assay with BT-549 is > 100 µM (inactive); in the assay with SK-MEL-2, > 100 µM (inactive); with Malme-3M, > 100 µM (inactive); in the assay on HOP-62, > 100 µM (inactive); in the assay on COLO 205 it was 95.9 µM (inactive); in the assay with HCT-15, more than 100 µM. The GI50 in the assay on MDA-MB-231 is > 100 µM (inactive); in the assay on A498, 40.6 µM (inactive).
As to `COc1ccc(C(SCCO)(c2ccccc2)c2ccccc2)cc1`, the GI50 in the assay on M14 was 7.08 µM (inactive); in the assay on TK-10, 18.8 µM (inactive); in the assay on CAKI-1 it was 15.5 µM (inactive); in the assay on DU-145, 13.6 µM (inactive); in the assay with UACC-257, 17.4 µM (inactive); with MDA-MB-435, 10.5 µM (inactive). Further, the GI50 in the assay on UACC-62 was 14.3 µM (inactive); in the assay with OVCAR-8, 17.9 µM (inactive); with Hs-578T it was 22.3 µM (inactive); in the assay with HCC 2998, 16.4 µM (inactive); with OVCAR-4 it was 15.6 µM (inactive); in the assay on SNB-75 it was 12.2 µM (inactive). The GI50 in the assay with BT-549 is 16.6 µM (inactive); in the assay with SK-MEL-2 it was 13.1 µM (inactive); with Malme-3M, 18.9 µM (inactive); with HOP-62, 15.4 µM (inactive); with COLO 205, 14 µM (inactive); in the assay with HCT-15, 11.9 µM. Moreover, the GI50 is 14.3 µM (inactive) in the assay with MDA-MB-231 and 17.2 µM (inactive) in the assay on A498.
On to `Cc1ccc(-c2c3nc(c(-c4ccc(C)cc4)c4ccc([nH]4)c(-c4ccc(OCC5COC(C)(C)O5)cc4)c4nc(c(-c5ccc(C)cc5)c5ccc2[nH]5)C=C4)C=C3)cc1` (centres undefined), for which the GI50 is > 31.6 µM (inactive) in the assay with M14; 21 µM (inactive) with TK-10; > 100 µM (inactive) with CAKI-1; > 31.6 µM (inactive) in the assay on DU-145; > 31.6 µM (inactive) in the assay on UACC-257; > 31.6 µM (inactive) in the assay on MDA-MB-435. The GI50 with UACC-62 is > 10 µM (inactive); with OVCAR-8 it was 25.1 µM (inactive); in the assay on Hs-578T, 10.3 µM (inactive); in the assay with HCC 2998 it was > 31.6 µM (inactive); in the assay on OVCAR-4, > 31.6 µM (inactive); in the assay on SNB-75, 10.2 µM (inactive). Moreover, the GI50 with BT-549 is > 100 µM (inactive); in the assay on SK-MEL-2, > 31.6 µM (inactive); with Malme-3M, > 31.6 µM (inactive); in the assay with HOP-62, > 31.6 µM (inactive); in the assay on COLO 205, > 31.6 µM (inactive); with HCT-15, more than 31.6 µM. Moreover, the GI50 was > 31.6 µM (inactive) with MDA-MB-231 and 1.13 µM (inactive) in the assay on A498.
On to `COC(=O)C1=C(OC(=O)/C(=C/c2ccccc2)c2ccc(OC)cc2)C(C(=O)OC)[C@@]2(O)[C@@H](C(=O)OC)[C@H](C)C[C@@H]1[C@@H]2C(=O)OC` (some centres undefined), for which the GI50 with M14, with TK-10, in the assay with CAKI-1, with DU-145, with UACC-257 and with MDA-MB-435 was > 100 µM (inactive) in each case. Also, the GI50 was > 100 µM (inactive) with UACC-62; 35.6 µM (inactive) with OVCAR-8; 20.6 µM (inactive) with Hs-578T; > 100 µM (inactive) with HCC 2998; > 100 µM (inactive) with OVCAR-4; 24.2 µM (inactive) with SNB-75. The GI50 is 21 µM (inactive) with BT-549; > 100 µM (inactive) with SK-MEL-2; > 100 µM (inactive) with Malme-3M; > 100 µM (inactive) with HOP-62; > 100 µM (inactive) in the assay on COLO 205; more than 100 µM with HCT-15. Moreover, the GI50 was 18.7 µM (inactive) with MDA-MB-231 and > 100 µM (inactive) with A498.
Turning to `C=CCNC(NCC=C)=C(C(Cl)=C(Cl)Cl)[N+](=O)[O-]`, the GI50 in the assay on M14 is 31.9 µM (inactive); in the assay on CAKI-1, 30.5 µM (inactive); in the assay with DU-145 it was 78.3 µM (inactive); in the assay with UACC-257 it was > 100 µM (inactive); with MDA-MB-435, 32 µM (inactive); in the assay on UACC-62, > 100 µM (inactive). For the same molecule, the GI50 was 16.6 µM (inactive) in the assay on OVCAR-8; 25.4 µM (inactive) in the assay on Hs-578T; > 100 µM (inactive) with HCC 2998; 31.8 µM (inactive) with OVCAR-4; 89.1 µM (inactive) in the assay with SNB-75; 26 µM (inactive) with BT-549. Moreover, the GI50 with SK-MEL-2 was > 100 µM (inactive); in the assay with Malme-3M, 16.4 µM (inactive); with HOP-62, > 100 µM (inactive); with COLO 205, 19.7 µM (inactive); in the assay with HCT-15, 16.8 µM; with MDA-MB-231 it was > 100 µM (inactive). In the assay with A498, the GI50 was > 100 µM (inactive).

The record behind these values is ChEMBL document CHEMBL1201862, “PubChem BioAssay data set” (2004).
